Source: patent US8673578B2, “Methods of identifying antagonists of the hTAS2R46 bitter taste receptor” (Deutsches Institut für Ernahrungsforschung Potsdam-Rehbrücke, priority 2009, dated 2014)

Columns and labels:
Test in all cases: calcium imaging (FLIPR), activation of hTAS2R-transfected HEK293T-Gα16gust44 cells
other hTAS2 receptors = format: cell-based, human; conditions: 100 μM test substance, bath application
Description: (§1) Human TAS2R cDNAs were cloned into pcDNA5/FRT (Invitrogen, San Diego, Calif.). For adequate plasma membrane targeting, receptor cDNA was fused to the aminoterminal sequence of the rat somatostatin type 3 receptor at the aminoterminus of the recombinant protein (Bufe, B., T. Hofmann, et al. (2002) Nat Genet. 32(3): 397-401). For immunological detection, the Herpes simplex Glycoprotein D epitope was supplemented at the carboxyterminus of the recombinant protein (Bufe et al., supra). Receptor constructs were transiently transfected into HEK293T cells stably expressing the chimeric G protein subunit Gα16gust44 (Ueda, T., S. Ugawa, et al. (2003) J Neurosci 23(19): 7376-80) using Lipofectamine 2000 (Invitrogen, San Diego, Calif.) in 96-well plates.
Calcium Imaging experiments were performed 24 h after transfection using a Fluorometric Imaging Plate Reader (FLIPR, Molecular Devices, Munich, Germany) as previously described (Bufe et al., supra). Taste active compounds were ordered from Sigma (Sigma-Aldrich, Taufkirchen, Germany). Absinthin, 3β hydroxy dihydro costunolide and 3β hydroxy pelenolide were kindly provided by Giovanni Appendino (Novara, Italy). […] Fluorescence signals after application of test substances were corrected for and normalized to background fluorescence (ΔF/F═(F−F0)/F0), and baseline noise was subtracted. […]

hTAS2R8 = target: T1, hTAS2R8 (Homo sapiens, UniProt Q9NYW2); format: cell-based; conditions: 100 μM test substance, bath application
T1 construct: expressed in transfected cells; host or cells: HEK293T cells stably expressing chimeric Gα16gust44, transient transfection
T1 sequence (Q9NYW2 1-309): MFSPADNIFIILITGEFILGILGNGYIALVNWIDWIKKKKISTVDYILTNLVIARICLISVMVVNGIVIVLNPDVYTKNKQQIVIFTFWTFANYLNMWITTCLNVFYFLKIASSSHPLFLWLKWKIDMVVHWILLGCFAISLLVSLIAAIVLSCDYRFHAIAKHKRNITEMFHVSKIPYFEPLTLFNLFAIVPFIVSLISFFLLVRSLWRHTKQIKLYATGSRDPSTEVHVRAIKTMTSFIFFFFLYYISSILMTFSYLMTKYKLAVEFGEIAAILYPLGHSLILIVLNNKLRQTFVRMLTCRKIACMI
Description: as §1
(§2) Calcium Imaging experiments were performed 24 h after transfection using a Fluorometric Imaging Plate Reader (FLIPR, Molecular Devices, Munich, Germany) as previously described (Bufe et al., supra). Taste active compounds were ordered from Sigma (Sigma-Aldrich, Taufkirchen, Germany). Absinthin, 3β hydroxy dihydro costunolide and 3β hydroxy pelenolide were kindly provided by Giovanni Appendino (Novara, Italy). Test substances were directly dissolved in C1 buffer (130 mM NaCl, 10 mM Na-Hepes, 10 mM Glucose, 5 mM KCl, 2 mM CaCl2, pH 7.4) or in DMSO, respectively. DMSO stocks were further diluted in C1 buffer not exceeding a final DMSO concentration of 1% on the cells. For the investigation of antagonistic effects, test substances were premixed. Agonists were applied at concentrations corresponding to EC90, except where indicated otherwise (Table 2). Data were collected from 3 independent experiments performed in quadruplicates and processed with SigmaPlot (SPSS, Chicago, Ill.). Fluorescence signals after application of test substances were corrected for and normalized to background fluorescence (ΔF/F═(F−F0)/F0), and baseline noise was subtracted. Calculation of dose-response curves was done by nonlinear regression using the function f(y)=((a−d)/(1+(x/EC50)^nH)+d).
(§3) In a first series of experiments we tested the two sesquiterpene lactones 3β hydroxy dihydro costunolide (formula (I) in FIG. 1) and 3β hydroxy pelenolide (formula (II) in FIG. 1) for their ability to activate hTAS2 receptor-expressing HEK293T cells.
(§4) Signal amplitudes were comparatively small (FIG. 2C).

hTAS2R4 = target: T2, hTAS2R4 (Homo sapiens, UniProt Q9NYW5); format: cell-based; conditions: 100 μM test substance, bath application
T2 construct: expressed in transfected cells; host or cells: HEK293T cells stably expressing chimeric Gα16gust44, transient transfection
T2 sequence (Q9NYW5 1-299): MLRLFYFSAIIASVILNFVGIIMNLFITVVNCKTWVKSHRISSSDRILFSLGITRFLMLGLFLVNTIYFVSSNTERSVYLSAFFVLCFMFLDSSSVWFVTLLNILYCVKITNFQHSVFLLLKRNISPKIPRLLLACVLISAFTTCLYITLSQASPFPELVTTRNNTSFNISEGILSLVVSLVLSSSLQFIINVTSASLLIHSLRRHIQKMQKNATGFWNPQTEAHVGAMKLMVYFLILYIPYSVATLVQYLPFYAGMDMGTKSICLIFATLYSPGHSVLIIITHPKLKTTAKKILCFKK
Description: as §1, §2, §3, §4

hTAS2R7 = target: T3, hTAS2R7 (Homo sapiens, UniProt Q9NYW3); format: cell-based; conditions: 100 μM test substance, bath application
T3 construct: expressed in transfected cells; host or cells: HEK293T cells stably expressing chimeric Gα16gust44, transient transfection
T3 sequence (Q9NYW3 1-318): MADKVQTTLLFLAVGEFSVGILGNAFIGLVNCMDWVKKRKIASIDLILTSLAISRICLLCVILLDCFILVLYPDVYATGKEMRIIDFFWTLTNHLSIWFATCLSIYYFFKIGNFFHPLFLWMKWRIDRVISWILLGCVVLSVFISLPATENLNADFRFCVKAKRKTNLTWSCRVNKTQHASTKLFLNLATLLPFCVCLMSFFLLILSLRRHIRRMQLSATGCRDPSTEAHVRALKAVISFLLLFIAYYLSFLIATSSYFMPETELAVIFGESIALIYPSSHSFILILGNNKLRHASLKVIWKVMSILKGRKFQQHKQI
Description: as §1, §2, §3, §4

hTAS2R1 = target: T4, hTAS2R1 (Homo sapiens, UniProt Q9NYW7); format: cell-based; conditions: 100 μM test substance, bath application
T4 construct: expressed in transfected cells; host or cells: HEK293T cells stably expressing chimeric Gα16gust44, transient transfection
T4 sequence (Q9NYW7 1-299): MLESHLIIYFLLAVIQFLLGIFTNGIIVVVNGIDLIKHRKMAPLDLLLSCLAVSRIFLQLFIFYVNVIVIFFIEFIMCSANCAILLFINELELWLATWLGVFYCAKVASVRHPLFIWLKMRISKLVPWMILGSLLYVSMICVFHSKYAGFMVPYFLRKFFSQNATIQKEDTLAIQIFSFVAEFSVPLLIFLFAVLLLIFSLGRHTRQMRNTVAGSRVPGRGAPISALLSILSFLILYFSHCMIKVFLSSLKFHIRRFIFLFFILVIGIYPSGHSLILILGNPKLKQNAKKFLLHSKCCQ
Description: as §1, §2, §3, §4

hTAS2R38 = target: T5, hTAS2R38 (Homo sapiens, UniProt P59533); format: cell-based; conditions: 100 μM test substance, bath application; DMSO control
T5 construct: expressed in transfected cells; host or cells: HEK293T cells stably expressing chimeric Gα16gust44, transient transfection
T5 sequence (P59533 1-333): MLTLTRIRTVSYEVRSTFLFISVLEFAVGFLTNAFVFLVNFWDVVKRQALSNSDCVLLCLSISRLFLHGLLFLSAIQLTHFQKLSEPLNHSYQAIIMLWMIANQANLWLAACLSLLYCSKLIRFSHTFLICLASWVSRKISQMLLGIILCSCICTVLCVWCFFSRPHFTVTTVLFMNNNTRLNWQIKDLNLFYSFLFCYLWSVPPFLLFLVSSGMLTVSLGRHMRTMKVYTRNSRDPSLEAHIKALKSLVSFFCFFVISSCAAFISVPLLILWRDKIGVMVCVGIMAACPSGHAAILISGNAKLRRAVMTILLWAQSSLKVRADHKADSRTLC
Description: as §1, §2, §3, §4

C/C1=C\C[C@H](O)/C(C)=C/[C@H]2OC(=O)[C@@H](C)C2CC1 (stereo partly drawn) [3β hydroxy dihydro costunolide]
calcium response of cells expressing any of the other TAS2Rs (other hTAS2 receptors): did not respond
calcium response of hTAS2R8-transfected cells (hTAS2R8): responded
calcium response of hTAS2R4-transfected cells (hTAS2R4): responded
calcium response of hTAS2R7-transfected cells (hTAS2R7): responded
calcium response of hTAS2R1-transfected cells (hTAS2R1): responded
calcium response of hTAS2R38-transfected cells (hTAS2R38): generated by DMSO used as solvent
